Read-outs that look alike come from different tables or passages of the source.

In series [1] the test system is E-CADHERIN
Briefly: q-RT-PCR expression of EMT markers in MDA-MB-231 cells under hypoxia: E-CADHERIN
It is filed as cell-based, human. The note with it: althiazide 100 μM, hypoxic conditions (1% O2), vs control, FIG. 11. On the procedure:
(§1) The cell cultures are carried out on human breast cancer epithelial cell lines MDA-MB-231 (HTB-26™), resulting from metastases present in a pleural effusion of a patient with a mammary adenocarcinoma. This line is used as a triple negative cancer cell model (no expression of ER-type nuclear estrogen receptors, nuclear progesterone receptors or overexpression of the oncogene encoding HER2 protein (Human Epidermal Growth factor Receptor-2).
(§2) The cells were cultured in DMEM medium (Eurobio, Fance) supplemented with 10% fetal calf serum (FCS) (Eurobio, Fance) at 37° C., 5% CO2. The medium was changed every 3 days.
(§3) The cells were placed in a controlled atmosphere at 1% oxygen 24 hours before the application of the different treatments.
(§4) The expression of the mRNAs is measured by the q-RT-PCR method. The cells were seeded at the density of 500,000 cells/well in 6-well plates. After 24 hours at 37° C., 5% CO2 and 1% O2, the medium was renewed and added the various treatments. RNA was isolated using TRI Reagent® (sigma), assayed and retro-transcribed into complementary DNA using the PrimeScript RT Reagent Kit (Takara). The expression levels of the mRNA of the genes of interest were determined by quantitative PCR (LightCycler® 480 Instrument II) with the primers listed in Table 2: […]
(§5) The results are calculated using the Delta Delta Ct (Δ ΔCt) method.

For series [2], the system named is ZEB1. Kind of series: q-RT-PCR expression of EMT markers in MDA-MB-231 cells under hypoxia: ZEB1. It is filed as cell-based, human. The note with it: althiazide 100 μM, hypoxic conditions (1% O2), vs control, FIG. 11. On the procedure:
as §1, §2, §3, §4, §5

Series [3] has as its system hematopoietic stem cells CD41:GFP accumulated in the CHT. It is filed as in vivo. The settings on record: for reduction of the number of HSCs accumulated in CHT: 10 μM (FIG. 3; b188 prints 10 μl), 24 h, vs reference embryos treated with DMSO; for efficiency on number of cells migrated to CHT: 24 hours, FIG. 6. From the text:
A method for determining whether a molecule is capable of treating cancer in the pre-metastatic state has been described in international application WO 2011/007259. This method consists in isolating molecules capable of inhibiting the emergence of hematopoietic stem cells from the floor of the aorta without cell division, but by endothelial-to-hematopoietic transition. This emergence involves the loss of cell polarity of emerging cells, the loss of cellular junctions with these neighboring cells and the acquisition of migratory properties. This model is used because it mimics each stage of the epithelial-mesenchymal transition, the first stage of cancer metastasis. The endothelial-to-hematopoietic transition takes place in a region of the embryo called Aorta-Gonad-Mesonephros (AGM).
The colonization of hematopoietic tissues by hematopoietic stem cells mimics the appearance and/or progression of a metastatic cancerous tumor since it involves intravasation, extravasation, or the migration of HSCs following a gradient of SDF-1. The first colonized tissue is caudal hematopoietic tissue (CHT).
In order to evaluate the inhibition of the endothelial-to-hematopoietic transition, transgenic CD41:GFP (green fluorescent protein) embryos are used. HSCs express GFP under the control of the CD41 promoter, which allows them to be monitored in vivo under a fluorescence microscope. The read-out is the number of hematopoietic stem cells CD41:GFP accumulated in the AGM (mimicking the initiation of the metastatic process) and/or in the CHT of the zebrafish embryo (mimicking the progression of the metastatic process). The accumulation of CD41:GFP cells in CHT implies that each cell has made an endothelial-to-hematopoietic transition, intravasation, extravasation at the CHT level, has settled in a stromal niche and has proliferated.
The Tg transgenic zebrafish line (CD41:GFP) is maintained in accordance with the protocols described by the Ethical Committee for Animal Experimentation. The fish are kept at a temperature of 28° C. and their development stage is determined as before. The molecules are tested on zebrafish embryos at the 25 hpf stage. The embryos are decorticated and transferred to a 96-well plate (1 embryo/well) containing the test compounds in a final volume of 100 μl of the embryonic growth medium (60 μg salt for 1 ml H2O). […] The treated embryos are incubated for 24 hours in an incubator at 28° C.
The embryos are imaged with a plate reader after being anesthetized with 0.16% tricaine (ethyl-3-aminobenzoate). A quantification of the number of fluorescent cells (CD41:GFP) accumulated in the CHT is carried out.
Althiazide was tested on the zebrafish embryo according to the method previously described in the international application WO 2011/007259. This method consists in isolating molecules capable of inhibiting the emergence of hematopoietic stem cells from the floor of the aorta without cell division, but by endothelial-to-hematopoietic transition. This emergence involves the loss of cell polarity of emerging cells, the loss of cellular junctions with these neighboring cells and the acquisition of migratory properties. This model is used, in the context of the invention, because it mimics each of the stages of the epithelial-to-mesenchymal transition, the first stage of the cancerous metastasis. The endothelial-to-hematopoietic transition takes place in a region of the embryo called Aorto-Gonado-Mesonephros (AGM).
The colonization of hematopoietic tissues by hematopoietic stem cells mimics the appearance and/or progression of a metastatic tumor since it involves intravasation, extravasation, or the migration of HSCs following a gradient of SDF1. The first colonized tissue is caudal hematopoietic tissue (CHT). This physiological process is considered, in the context of the invention, as representative of the appearance and/or progression of a metastatic tumor. […]

For series [4], the system named is N-CADHERIN
Briefly: q-RT-PCR expression of EMT markers in MDA-MB-231 cells under hypoxia: N-CADHERIN
The class given is cell-based, human. The note with it: althiazide 100 μM, hypoxic conditions (1% O2), vs control, FIG. 11. On the procedure: as §1, §2, §3, §4, §5

Series [5] is described as follows: Solubilization of althiazide and enantiomers without DMSO. The note with it: no DMSO. The class given is physicochemical. On the procedure:
Solubilization of althiazide and enantiomers was achieved by solubilization in a solvent of 95% 1M Tris pH 10.8 and supplemented with 5% pure ethanol.
Althiazide and enantiomers are resuspended at a concentration of 2 mg/ml. Each of the solutions is vortexed for 30 seconds and then placed in an ultrasound bath for a sonication of 5min; this operation is repeated once. The dissolution is complete despite the absence of DMSO.
The solubilization of althiazide and enantiomers was also obtained by solubilization in a solution consisting of a mixture of 3.7% of NaHCO3, 0.2M and 21% of Na2CO3 0.2M at pH 10.6 and supplemented with pure water. Althiazide and enantiomers are resuspended at a concentration of 2.5 mg/ml. Each of the solutions is vortexed for 30 seconds and then placed in an ultrasound bath for a sonication of 1 min. The dissolution is complete despite the absence of DMSO.

For series [6], the system named is VIMENTIN
Kind of series: q-RT-PCR expression of EMT markers in MDA-MB-231 cells under hypoxia: VIMENTIN
The class given is cell-based, human. The settings on record: althiazide 100 μM, hypoxic conditions (1% O2), vs control, FIG. 11. How it is done:
as §1, §2, §3, §4, §5

With `C=CCSCC1Nc2cc(Cl)c(S(N)(=O)=O)cc2S(=O)(=O)N1` (racemic) [althiazide], the “increase in E-CADHERIN expression” value in series [1] turned out to be 73%. Also, the “change in expression of ZEB1” value in series [2] is on record as −14%. Further, the “reduction of the number of HSCs accumulated in CHT” value in series [3] is given as 41%; in series [3] (listed as Althiazide) it was “most effective chemical compound”. Moreover, the “anti-migratory effect (HSCs accumulated in CHT) compared with dasatinib” value in series [3] (10 μM both, control DMSO 1%, FIG. 5) is reported as “as effective as dasatinib”. Besides, in series [3] (10 μM, larger number of embryos (n=64 and n=74), FIG. 4), the “decrease in the number of cells that colonized/migrated in CHT, second test” value is on record as 36.2%. Besides, the “efficiency on number of cells migrated to CHT” value is on record as “no effect” in series [3] (althiazide 1 μM), 50% in series [3] (althiazide 10 μM) and 100% in series [3] (althiazide 100 μM). Further, in series [3] (thiazide compounds test, 10 μM or 25 μM, FIG. 9), the “invasion of CHT by CD41:GFP cells / number of cells having colonized CHT, in words” value is on record as “most effective chemical compound”. In addition, the “reduction of migration (cells having colonized CHT)” value in series [3] (thiazide compounds test, FIG. 9, concentration not stated (tested at 10 and 25 μM)) is on record as 30%. Besides, the “toxic effects in the dose effect test” value in series [3] (zebrafish, in vivo) was “appearance of toxic effects”. Further, in series [4], the “change in expression of N-CADHERIN” value is listed as −33%. The dissolution result in series [5] (2 mg/ml in 95% 1M Tris pH 10.8 + 5% pure ethanol, vortex and sonication) is on record as “complete”; in series [5] (2.5 mg/ml in 3.7% NaHCO3 0.2M + 21% Na2CO3 0.2M at pH 10.6 and pure water) it was “complete”. In addition, the “change in expression of VIMENTIN” value in series [6] was −22%.

Values taken from patent US20230137849A1, “USE OF A COMPOUND OF THE DIURETICS CLASS FOR TREATING CANCER” (AZELEAD, priority 2017, published 2023).
